IC50 data for 26 compounds are collected here from patent publication US12209087B2, “AKT1 modulators” (Alterome Therapeutics, Inc., priority 2022, dated 2025).

Structures are written as SMILES.

The target of one test is T1, full length AKT E17K (Homo sapiens, UniProt P31749, E17K).
T1 construct: host or cells: HEK-293 (ATCC CRL-1573)
T1 sequence (P31749 whole entry E17K): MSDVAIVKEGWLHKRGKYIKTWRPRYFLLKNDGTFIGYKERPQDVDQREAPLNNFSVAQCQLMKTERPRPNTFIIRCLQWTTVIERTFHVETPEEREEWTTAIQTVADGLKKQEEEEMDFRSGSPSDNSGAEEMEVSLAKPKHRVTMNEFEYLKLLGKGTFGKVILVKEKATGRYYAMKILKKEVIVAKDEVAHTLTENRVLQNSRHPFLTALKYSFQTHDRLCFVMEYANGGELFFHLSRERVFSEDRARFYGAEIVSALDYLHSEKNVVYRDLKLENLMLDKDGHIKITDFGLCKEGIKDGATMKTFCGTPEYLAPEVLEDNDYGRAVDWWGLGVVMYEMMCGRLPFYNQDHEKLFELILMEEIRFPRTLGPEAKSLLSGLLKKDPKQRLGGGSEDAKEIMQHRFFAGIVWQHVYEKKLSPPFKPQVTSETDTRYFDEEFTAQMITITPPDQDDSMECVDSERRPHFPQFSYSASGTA
As to the kind of experiment: NanoBRET Target Engagement (TE) Assay. The test is classed as cell-based. The note with it: competitive displacement of tracer in cells, read-out: AKT1 E17K IC50. Summed up:
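Compound and tracer incubated 2 h before luminescence at donor 450 nm and acceptor 600 nm, with extracellular signal inhibited. EC50 by sigmoidal variable-slope regression.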
As to `CS(=O)(=O)c1ccc2nc(-c3cccnc3N)n(-c3ccc(CN4CCC(Nc5ccnc(C#N)n5)CC4)cc3)c2n1` [Example 436, 4-((1-(4-(2-(2-Aminopyridin-3-yl)-5-(methylsulfonyl)-3H-imidazo[4,5-b]pyridin-3-yl)benzyl)piperidin-4-yl)amino)pyrimidine-2-carbonitrile], the IC50 lay within 60 to 600 nM. Consider `COc1ccc(-c2ccc3nc(-c4nccnc4N)n(-c4ccc(CN5CCC(Nc6ccnc(C#N)n6)CC5)cc4)c3n2)cn1` [Example 636, 4-((1-(4-(2-(3-Aminopyrazin-2-yl)-5-(6-methoxypyridin-3-yl)-3H-imidazo[4,5-b]pyridin-3-yl)benzyl)piperidin-4-yl)amino)pyrimidine-2-carbonitrile], for which the IC50 is less than 15 nM. In the case of `N#Cc1nccc(NC2CCN(Cc3ccc(-n4c(-c5cccnc5N)nc5ccc(-n6ccnn6)nc54)cc3)CC2)n1` [Example 591, 4-((1-(4-(2-(2-Aminopyridin-3-yl)-5-(1H-1,2,3-triazol-1-yl)-3H-imidazo[4,5-b]pyridin-3-yl)benzyl)piperidin-4-yl)amino)pyrimidine-2-carbonitrile], the concentration for half-maximal inhibition (IC50) is less than 15 nM. Consider `N#Cc1nccc(N2CCN(Cc3ccc(-n4c(-c5cccnc5N)nc5ccc(-c6ccncc6C#N)nc54)cc3)CC2)n1` [Example 399, 4-(4-(4-(2-(2-Aminopyridin-3-yl)-5-(3-cyanopyridin-4-yl)-3H-imidazo[4,5-b]pyridin-3-yl)benzyl)piperazin-1-yl)pyrimidine-2-carbonitrile], for which the IC50 was 15 to 60 nM.

For the compound `CN(C)c1ccc2nc(-c3cccnc3N)n(-c3ccc(CN4CCC(Nc5ccnc(C#N)n5)CC4)cc3)c2n1` [Example 389, 4-((1-(4-(2-(2-Aminopyridin-3-yl)-5-(dimethylamino)-3H-imidazo[4,5-b]pyridin-3-yl)benzyl)piperidin-4-yl)amino)pyrimidine-2-carbonitrile], the IC50 is less than 15 nM.

`Cc1c(-c2ccc3nc(-c4cccnc4N)n(-c4ccc(CN5CCC(Nc6ccnc(C#N)n6)CC5)cc4)c3n2)cnn1C` [Example 484, 4-((1-(4-(2-(2-Aminopyridin-3-yl)-5-(1,5-dimethyl-1H-pyrazol-4-yl)-3H-imidazo[4,5-b]pyridin-3-yl)benzyl)piperidin-4-yl)amino)pyrimidine-2-carbonitrile]: the IC50 was less than 15 nM. For the compound `C#Cc1ccc2nc(-c3cccnc3N)n(-c3ccc(CN4CCC(Nc5ccnc(C#N)n5)CC4)cc3)c2n1` [Example 513, 4-((1-(4-(2-(2-Aminopyridin-3-yl)-5-ethynyl-3H-imidazo[4,5-b]pyridin-3-yl)benzyl)piperidin-4-yl)amino)pyrimidine-2-carbonitrile], the IC50 is less than 15 nM. The same measure, in the same setting: the figure for `CC(=O)N(C)C1CCN(c2cccc(-c3ccc4nc(-c5cccnc5N)n(-c5ccc(CN6CCC(Nc7ccnc(C#N)n7)CC6)cc5)c4n3)c2)CC1` [Example 522, N-(1-(3-(2-(2-Aminopyridin-3-yl)-3-(4-((4-((2-cyanopyrimidin-4-yl)amino)piperidin-1-yl)methyl)phenyl)-3H-imidazo[4,5-b]pyridin-5-yl)phenyl)piperidin-4-yl)-N-methylacetamide] is 15 to 60 nM; for `N#Cc1ccnc(N2C[C@@H]3C[C@H]2CN3Cc2ccc(-n3c(-c4cccnc4N)nc4ccc(-c5ccccc5)nc43)cc2)n1` [Example 377, 2-((1S,4S)-5-(4-(2-(2-Aminopyridin-3-yl)-5-phenyl-3H-imidazo[4,5-b]pyridin-3-yl)benzyl)-2,5-diazabicyclo[2.2.1]heptan-2-yl)pyrimidine-4-carbonitrile] it is 60 to 600 nM; for `Cc1ccc(-c2ccc3nc(-c4cccnc4N)n(-c4ccc(CN5CCC(Nc6ccnc(C#N)n6)CC5)cc4)c3n2)cn1` [Example 534, 4-((1-(4-(2-(2-Aminopyridin-3-yl)-5-(6-methylpyridin-3-yl)-3H-imidazo[4,5-b]pyridin-3-yl)benzyl)piperidin-4-yl)amino)pyrimidine-2-carbonitrile] it is less than 15 nM. Still for that read-out and setting: to `[2H]C([2H])([2H])Oc1ccc(-c2ccc3nc(-c4cccnc4N)n(-c4ccc(CN5CCC(Nc6ccnc(C#N)n6)CC5)cc4)c3n2)nc1` [Example 578, 4-((1-(4-(2-(2-Aminopyridin-3-yl)-5-(5-(methoxy-d)pyridin-2-yl)-3H-imidazo[4,5-b]pyridin-3-yl)benzyl)piperidin-4-yl)amino)pyrimidine-2-carbonitrile] belongs less than 15 nM. On the same count and under the same terms, the figure for `[2H]C([2H])([2H])Nc1ccc2nc(-c3cccnc3N)n(-c3ccc(CN4CCC(Nc5ccnc(C#N)n5)CC4)cc3)c2n1` [Example 459, 4-((1-(4-(2-(2-Aminopyridin-3-yl)-5-((methyl-d3)amino)-3H-imidazo[4,5-b]pyridin-3-yl)benzyl)piperidin-4-yl)amino)pyrimidine-2-carbonitrile] is less than 15 nM; for `N#Cc1nccc(NC2CCN(Cc3ccc(-n4c(-c5cccnc5N)nc5ccc(-c6ccc(OCF)nc6)nc54)cc3)CC2)n1` [Example 606, 4-((1-(4-(2-(2-Aminopyridin-3-yl)-5-(6-(fluoromethoxy)pyridin-3-yl)-3H-imidazo[4,5-b]pyridin-3-yl)benzyl)piperidin-4-yl)amino)pyrimidine-2-carbonitrile] it is less than 15 nM.

As for `Cn1nccc1-c1ccc2nc(-c3cccnc3N)n(-c3ccc(CN4CCC(Nc5ccnc(C#N)n5)CC4)cc3)c2n1` [Example 467, 4-((1-(4-(2-(2-Aminopyridin-3-yl)-5-(1-methyl-1H-pyrazol-5-yl)-3H-imidazo[4,5-b]pyridin-3-yl)benzyl)piperidin-4-yl)amino)pyrimidine-2-carbonitrile], the IC50 is less than 15 nM. `C=Cc1ccc2nc(-c3cccnc3N)n(-c3ccc(CN4CCC(Nc5ccnc(C#N)n5)CC4)cc3)c2n1` [Example 454, 4-((1-(4-(2-(2-Aminopyridin-3-yl)-5-vinyl-3H-imidazo[4,5-b]pyridin-3-yl)benzyl)piperidin-4-yl)amino)pyrimidine-2-carbonitrile]: the IC50 is less than 15 nM. Turning to `N#Cc1cc2c(cn1)nc(-c1cccnc1N)n2-c1ccc(CN2CCC(Nc3ccnc(C#N)n3)CC2)cc1` [Example 553, 2-(2-Aminopyridin-3-yl)-1-(4-((4-((2-cyanopyrimidin-4-yl)amino)piperidin-1-yl)methyl)phenyl)-1H-imidazo[4,5-c]pyridine-6-carbonitrile], the IC50 is 15 to 60 nM.

The same test, now with this note: competitive tracer displacement in living cells, read-out: AKT1 E17K IC50.
Regarding `CC(=O)Nc1cccc(-c2ccc3nc(-c4cccnc4N)n(-c4ccc(CN5CCN(c6cncc(C#N)n6)CC5)cc4)c3n2)c1` [Example 40, N-(3-(2-(2-aminopyridin-3-yl)-3-(4-((4-(6-cyanopyrazin-2-yl)piperazin-1-yl)methyl)phenyl)-3H-imidazo[4,5-b]pyridin-5-yl)phenyl)acetamide], the IC50 was less than 15 nM. The same measure, in the same setting: to `C[C@H]1CN(Cc2ccc(-n3c(-c4cccnc4N)nc4ccc(-c5ccccc5)nc43)cc2)C[C@H](C)N1c1ccnc(C#N)n1` [Example 192, 4-((2S,6S)-4-(4-(2-(2-Aminopyridin-3-yl)-5-phenyl-3H-imidazo[4,5-b]pyridin-3-yl)benzyl)-2,6-dimethylpiperazin-1-yl)pyrimidine-2-carbonitrile] belongs 15 to 60 nM. With `N#Cc1ccc(C(=O)N2CCN(Cc3ccc(-n4c(-c5cccnc5N)nc5cccnc54)cc3)CC2)cn1` [Example 102, 5-(4-(4-(2-(2-Aminopyridin-3-yl)-3H-imidazo[4,5-b]pyridin-3-yl)benzyl)piperazine-1-carbonyl)picolinonitrile], the IC50 was 600 to 10000 nM. For the compound `CN(c1ccnc(C#N)n1)C1CCN(Cc2ccc(-n3c(-c4cccnc4N)nc4ccc(-c5ccccc5)nc43)cc2)CC1` [Example 156, 4-((1-(4-(2-(2-Aminopyridin-3-yl)-5-phenyl-3H-imidazo[4,5-b]pyridin-3-yl)benzyl)piperidin-4-yl)(methyl)amino)pyrimidine-2-carbonitrile], the IC50 was 15 to 60 nM. As for `Cn1cccc(-c2ccc3nc(-c4cccnc4N)n(-c4ccc(CN5CCC(Nc6ccnc(C#N)n6)CC5)cc4)c3n2)c1=O` [Example 261, 4-((1-(4-(2-(2-Aminopyridin-3-yl)-5-(1-methyl-2-oxo-1,2-dihydropyridin-3-yl)-3H-imidazo[4,5-b]pyridin-3-yl)benzyl)piperidin-4-yl)amino)pyrimidine-2-carbonitrile], the IC50 was less than 15 nM.

As to `CC(=O)Nc1cccc(-c2ccc3nc(-c4cccnc4N)n(-c4ccc(CN5CCN(c6ccc(C#N)nc6)CC5)cc4)c3n2)c1` [Example 38, N-(3-(2-(2-Aminopyridin-3-yl)-3-(4-((4-(6-cyanopyridin-3-yl)piperazin-1-yl)methyl)phenyl)-3H-imidazo[4,5-b]pyridin-5-yl)phenyl)acetamide], the IC50 was 60 to 600 nM. On the same count and under the same terms, the figure for `N#Cc1nccc(N2CCN(Cc3ccc(-n4c(-c5cccnc5N)nc5ccc(N6CCOCC6)nc54)cc3)CC2)n1` [Example 235, 4-(4-(4-(2-(2-Aminopyridin-3-yl)-5-morpholino-3H-imidazo[4,5-b]pyridin-3-yl)benzyl)piperazin-1-yl)pyrimidine-2-carbonitrile] is 60 to 600 nM. In the case of `N#Cc1cccc(-c2ccc3nc(-c4cccnc4N)n(-c4ccc(CN5CCC(Nc6ccnc(C#N)n6)CC5)cc4)c3n2)c1` [Example 265, 4-((1-(4-(2-(2-Aminopyridin-3-yl)-5-(3-cyanophenyl)-3H-imidazo[4,5-b]pyridin-3-yl)benzyl)piperidin-4-yl)amino)pyrimidine-2-carbonitrile], the IC50 is less than 15 nM. Still for that read-out and setting: to `N#Cc1cnccc1C(=O)NC1CCN(Cc2ccc(-n3c(-c4cccnc4N)nc4cccnc43)cc2)CC1` [Example 36, N-(1-(4-(2-(2-Aminopyridin-3-yl)-3H-imidazo[4,5-b]pyridin-3-yl)benzyl)piperidin-4-yl)-3-cyanoisonicotinamide] belongs 600 to 10000 nM; to `N#Cc1ccc(C(=O)NC2CCN(Cc3ccc(-n4c(-c5cccnc5N)nc5cc(-c6ccccc6)cnc54)cc3)CC2)cn1` [Example 165, N-(1-(4-(2-(2-aminopyridin-3-yl)-6-phenyl-3H-imidazo[4,5-b]pyridin-3-yl)benzyl)piperidin-4-yl)-6-cyanonicotinamide], 600 to 10000 nM.
